Among the data in patent US20250059220A1, “SUBSTITUTED BENZOTHIOPHENE DERIVATIVES AND METHODS OF USE THEREOF” (Merck Sharp & Dohme LLC, priority 2021, published 2025) are IC50 values, retold here.

As usually defined, the IC50 is the midpoint of a concentration-inhibition curve.

One test addresses human PTPN2 (1-387) (Homo sapiens (Human), UniProt P17706). Put plainly: Human PTPN2 Biochemical Assay. Particulars: DiFMUP substrate. The method, boiled down:
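Fluorogenic DiFMUP hydrolysis (1 h, room temperature, read ex 360/em 460 nm) after 30 min compound preincubation with PTPN2 residues 1-387, in 50 mM Tris pH 7.4, 150 mM NaCl, 0.01% Tween20, 0.5 mM DTT. Effects scaled between buffer and enzyme controls, 4-parameter fit gives EC50.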

For the next test, the target named is human PTPN1 (1-435) (Homo sapiens (Human), UniProt P18031). Nature of the test: Human PTPN1 Biochemical Assay. The following applies: DiFMUP substrate, read-out: PTP1B IC50. The method, boiled down: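 Read-out is DiFMUP hydrolysis fluorescence (360 nm excitation, 460 nm emission) after 1 h at room temperature, following 30 min enzyme–compound preincubation.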
human PTPN1 (1-435), sequence (P18031 whole entry): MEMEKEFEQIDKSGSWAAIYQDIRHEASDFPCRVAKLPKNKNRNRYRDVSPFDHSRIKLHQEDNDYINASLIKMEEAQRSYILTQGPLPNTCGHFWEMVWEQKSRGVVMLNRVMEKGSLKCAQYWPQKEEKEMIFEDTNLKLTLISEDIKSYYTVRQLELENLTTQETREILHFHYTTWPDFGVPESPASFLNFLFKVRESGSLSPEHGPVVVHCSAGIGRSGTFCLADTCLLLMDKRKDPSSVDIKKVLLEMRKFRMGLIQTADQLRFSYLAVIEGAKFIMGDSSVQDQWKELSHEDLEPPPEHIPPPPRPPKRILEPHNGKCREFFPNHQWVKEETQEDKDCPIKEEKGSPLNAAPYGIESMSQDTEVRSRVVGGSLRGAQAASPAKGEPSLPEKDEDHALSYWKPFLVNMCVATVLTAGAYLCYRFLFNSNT

human PTPN2 (1-387), sequence (P17706 other isoform, or with tags, fused parts or gaps): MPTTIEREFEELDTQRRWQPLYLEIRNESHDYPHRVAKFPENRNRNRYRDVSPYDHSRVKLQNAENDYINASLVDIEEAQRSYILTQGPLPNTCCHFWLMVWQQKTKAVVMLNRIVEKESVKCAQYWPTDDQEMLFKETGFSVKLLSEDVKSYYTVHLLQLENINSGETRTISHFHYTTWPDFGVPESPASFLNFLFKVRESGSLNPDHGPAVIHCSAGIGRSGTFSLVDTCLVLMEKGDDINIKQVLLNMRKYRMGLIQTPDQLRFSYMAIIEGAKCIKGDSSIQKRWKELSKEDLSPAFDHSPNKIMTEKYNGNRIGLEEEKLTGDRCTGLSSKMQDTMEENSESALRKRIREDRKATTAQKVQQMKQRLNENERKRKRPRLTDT

Turning to `CS(=O)(=O)CCCOc1cc(-c2cnn[nH]2)cc2c(Br)c(C(F)(F)P(=O)(O)O)sc12` [Compound 364], the figures for the IC50 on human PTPN2 (1-387) and on human PTPN1 (1-435) were 2.5 nM and 2.6 nM, respectively.
Take `NS(=O)(=O)CCCOc1cc(-c2cnn[nH]2)cc2c(Br)c(C(F)(F)P(=O)(O)O)sc12` [Compound 365]: the IC50 against human PTPN2 (1-387) and at human PTPN1 (1-435) was 2.5 nM throughout.
As for `Cc1nn[nH]c1-c1cc(OCCCC(F)(F)F)c2sc(C(F)(F)P(=O)(O)O)c(Br)c2c1` [Compound 366], the concentration for half-maximal inhibition (IC50) on human PTPN2 (1-387) was 2.6 nM; on human PTPN1 (1-435), 2.5 nM.
The like results for `O=P(O)(O)C(F)(F)c1sc2c(OCC3CC3(F)F)cc(-c3cnn[nH]3)cc2c1Br` (centres unmarked) [Compound 367] were, in that order, 12.2 nM and 14.1 nM.
As to `O=P(O)(O)C(F)(F)c1sc2c(OCC3CC3(F)F)cc(-c3cnn[nH]3)cc2c1Br` (centres unmarked) [Compound 368], the half-maximal inhibitory concentration (IC50) at human PTPN2 (1-387) came out at 3.53 nM; at human PTPN1 (1-435), 3.1 nM.
For `CS(=O)(=O)c1ccc(COc2cc(-c3cnn[nH]3)cc3c(Br)c(C(F)(F)P(=O)(O)O)sc23)cc1` [Compound 369] the same measures were less than 2.5 nM and less than 2.5 nM.
For `CCCC(C)Oc1cc(C(N)=O)cc2c(Br)c(C(F)(F)P(=O)(O)O)sc12` (centres unmarked) [Compound 370] the same measures were 140 nM and 133 nM.
The like results for `CNS(=O)(=O)CCCOc1cc(C(N)=O)cc2c(Br)c(C(F)(F)P(=O)(O)O)sc12` [Compound 373] were, in that order, 12 nM and 8.6 nM.
With `CN(C)S(=O)(=O)CCCOc1cc(C(N)=O)cc2c(Br)c(C(F)(F)P(=O)(O)O)sc12` [Compound 374], the IC50 was 14 nM against human PTPN2 (1-387) and 12.5 nM on human PTPN1 (1-435).
The like results for `NC(=O)CCCCOc1cc(C(N)=O)cc2c(Br)c(C(F)(F)P(=O)(O)O)sc12` [Compound 375] were, in that order, 77.9 nM and 67.4 nM.
The like results for `NC(=O)c1cc(OCc2ccc(CS(N)(=O)=O)cc2)c2sc(C(F)(F)P(=O)(O)O)c(Br)c2c1` [Compound 376] were, in that order, 37.9 nM and 32.6 nM.
Turning to `CS(=O)(=O)c1ccc(COc2cc(C(N)=O)cc3c(Br)c(C(F)(F)P(=O)(O)O)sc23)cc1` [Compound 377], the IC50 turned out to be 4.52 nM against human PTPN2 (1-387) and 5.8 nM at human PTPN1 (1-435).
Regarding `NC(=O)c1cc(OC[C@@H]2C[C@@H]2F)c2sc(C(F)(F)P(=O)(O)O)c(Br)c2c1` [Compound 378], the figures for the IC50 on human PTPN2 (1-387) and at human PTPN1 (1-435) were 91.9 nM and 74.4 nM, respectively.
The like results for `CS(=O)(=O)c1ccc(COc2cc(C(N)=O)cc3c(Br)c(C(F)(F)P(=O)(O)O)sc23)cn1` [Compound 379] were, in that order, 3.98 nM and 5.2 nM.
In the case of `NC(=O)c1cc(OCc2ccc(S(N)(=O)=O)nc2)c2sc(C(F)(F)P(=O)(O)O)c(Br)c2c1` [Compound 380], the half-inhibitory concentration (IC50) at human PTPN2 (1-387) was 2.5 nM; on human PTPN1 (1-435) it was 2.9 nM.
Consider `NC(=O)c1cc(OC[C@H]2C[C@H](S(N)(=O)=O)C2)c2sc(C(F)(F)P(=O)(O)O)c(Br)c2c1` [Compound 381], for which the IC50 on human PTPN2 (1-387) and at human PTPN1 (1-435) was 2.5 nM in each case.
Consider `NC(=O)c1cc(OC[C@H]2C[C@@H](S(N)(=O)=O)C2)c2sc(C(F)(F)P(=O)(O)O)c(Br)c2c1` [Compound 382], for which the IC50 was 32 nM against human PTPN2 (1-387) and 27.6 nM on human PTPN1 (1-435).
For `NC(=O)c1cc(OCc2cccc(C(F)(F)F)c2)c2sc(C(F)(F)P(=O)(O)O)c(Br)c2c1` [Compound 383] the same measures were 79.6 nM and 92.3 nM.
For `NC(=O)c1cc(OCc2cc(C(F)(F)F)cc(C(F)(F)F)c2)c2sc(C(F)(F)P(=O)(O)O)c(Br)c2c1` [Compound 384], the figures for the IC50 against human PTPN2 (1-387) and at human PTPN1 (1-435) were 351 nM and 299 nM, respectively.
For `NC(=O)c1cc(OCc2cccc3ccccc23)c2sc(C(F)(F)P(=O)(O)O)c(Br)c2c1` [Compound 385] the same measures were 124 nM and 166 nM.
Take `NC(=O)c1cc(OCc2ccc3c(c2)CCS3(=O)=O)c2sc(C(F)(F)P(=O)(O)O)c(Br)c2c1` [Compound 386]: the IC50 against human PTPN2 (1-387) amounted to 17.1 nM; at human PTPN1 (1-435), 26 nM.
For `CS(=O)(=O)c1ccc(COc2cc(C(N)=O)cc3c(Br)c(C(F)(F)P(=O)(O)O)sc23)c(Cl)c1` [Compound 387] the same measures were 15.1 nM and 35.8 nM.
On to `NC(=O)c1cc(OCc2ccc(C3(C(F)(F)F)CC3)cc2)c2sc(C(F)(F)P(=O)(O)O)c(Br)c2c1` [Compound 388], for which the IC50 against human PTPN2 (1-387) stood at 59.3 nM; on human PTPN1 (1-435), 132 nM.
The like results for `CS(=O)(=O)c1ccc(COc2cc(C(N)=O)cc3c(Br)c(C(F)(F)P(=O)(O)O)sc23)c(F)c1` [Compound 389] were, in that order, 7.8 nM and 14.1 nM.
The like results for `CS(=O)(=O)c1ccc(COc2cc(C(N)=O)cc3c(Br)c(C(F)(F)P(=O)(O)O)sc23)cc1Cl` [Compound 390] were, in that order, 4 nM and 8.7 nM.
For `Cc1cc(S(C)(=O)=O)ccc1COc1cc(C(N)=O)cc2c(Br)c(C(F)(F)P(=O)(O)O)sc12` [Compound 391], the IC50 against human PTPN2 (1-387) is 6.3 nM; at human PTPN1 (1-435) it was 12.4 nM.
For the compound `CC1CCS(=O)(=O)C1CCOc1cc(C(N)=O)cc2c(Br)c(C(F)(F)P(=O)(O)O)sc12` (centres unmarked) [Compound 392], the IC50 against human PTPN2 (1-387) came to 170 nM; at human PTPN1 (1-435), 153 nM.
For `CC1(c2ccc(COc3cc(C(N)=O)cc4c(Br)c(C(F)(F)P(=O)(O)O)sc34)cc2)CC1` [Compound 396] the same measures were 20.5 nM and 68.1 nM.
For `NC(=O)c1cc(OCc2ccc(S(N)(=O)=O)cc2)c2sc(C(F)(F)P(=O)(O)O)c(Br)c2c1` [Compound 397] the same measures were 4.4 nM and 7.7 nM.
The like results for `NC(=O)c1cc(OCc2ccc(-c3cncnc3)cc2)c2sc(C(F)(F)P(=O)(O)O)c(Br)c2c1` [Compound 398] were, in that order, 23.2 nM and 78.6 nM.
`NC(=O)c1cc(OCc2ccc(C3CC3)cc2Cl)c2sc(C(F)(F)P(=O)(O)O)c(Br)c2c1` [Compound 399]: the half-maximal inhibitory concentration (IC50) on human PTPN2 (1-387) was found to be 69 nM; at human PTPN1 (1-435), 213 nM.
For `NC(=O)c1cc(OCc2ccc([C@H]3CC[C@H](C(F)(F)F)CC3)cc2)c2sc(C(F)(F)P(=O)(O)O)c(Br)c2c1` [Compound 400] the same measures were 214 nM and 736 nM.
As to `NC(=O)c1cc(OCc2ccc(-c3cccnc3)cc2)c2sc(C(F)(F)P(=O)(O)O)c(Br)c2c1` [Compound 401], the half-inhibitory concentration (IC50) against human PTPN2 (1-387) was 4.4 nM; at human PTPN1 (1-435), 36.2 nM.
Take `NC(=O)c1cc(OCc2ccc(-c3ccncc3)cc2)c2sc(C(F)(F)P(=O)(O)O)c(Br)c2c1` [Compound 402]: the half-maximal inhibitory concentration (IC50) against human PTPN2 (1-387) came to 10.1 nM; on human PTPN1 (1-435), 59.5 nM.
For `NC(=O)c1cc(OCC23CC(S(N)(=O)=O)(C2)C3)c2sc(C(F)(F)P(=O)(O)O)c(Br)c2c1` [Compound 403] the same measures were 4 nM and 4.6 nM.
As for `O=P(O)(O)C(F)(F)c1sc2c(OCCCC(F)(F)F)cc(-c3cn[nH]c3)cc2c1Br` [Compound 404, ((3-bromo-5-(1H-pyrazol-4-yl)-7-(4,4,4-trifluorobutoxy)benzo[b]thiophen-2-yl)difluoromethyl)phosphonic acid], the IC50 on human PTPN2 (1-387) came out at 224 nM; at human PTPN1 (1-435) it was 287 nM.
Take `C#Cc1cc(OCCCC(F)(F)F)c2sc(C(F)(F)P(=O)(O)O)c(Br)c2c1` [Compound 405, ((3-bromo-5-ethynyl-7-(4,4,4-trifluorobutoxy)benzo[b]thiophen-2-yl)difluoromethyl)phosphonic acid]: the IC50 at human PTPN2 (1-387) was 288 nM; on human PTPN1 (1-435), 290 nM.
The like results for `O=P(O)(O)C(F)(F)c1sc2c(OCCCC(F)(F)F)cc(I)cc2c1Br` [Compound 406, ((3-bromo-5-iodo-7-(4,4,4-trifluorobutoxy)benzo[b]thiophen-2-yl)difluoromethyl)phosphonic acid] were, in that order, 518 nM and 487 nM.
As to `O=C(O)c1cc(OCCCC(F)(F)F)c2sc(C(F)(F)P(=O)(O)O)c(Br)c2c1` [Compound 407], the values for the concentration for half-maximal inhibition (IC50) on human PTPN2 (1-387) and on human PTPN1 (1-435) were 200 nM and 191 nM, respectively.
As to `O=P(O)(O)C(F)(F)c1sc2c(OCCCC(F)(F)F)cc(CO)cc2c1Br` [Compound 408], the IC50 against human PTPN2 (1-387) was 684 nM; at human PTPN1 (1-435), 518 nM.
The like results for `CNC(=O)c1cc(OCc2ccc(S(C)(=O)=O)cc2)c2sc(C(F)(F)P(=O)(O)O)c(Br)c2c1` [Compound 409] were, in that order, 2.6 nM and 3.7 nM.
For `O=P(O)(O)C(F)(F)c1sc2c(OCCCC(F)(F)F)cccc2c1Br` [Compound 410, ((3-bromo-7-(4,4,4-trifluorobutoxy)benzo[b]thiophen-2-yl)difluoromethyl)phosphonic acid] the same measures were 225 nM and 281 nM.
As for `CS(=N)(=O)Cc1cc(OCCCC(F)(F)F)c2sc(C(F)(F)P(=O)(O)O)c(Br)c2c1` (centres unmarked) [Compound 412], the 50% inhibitory concentration (IC50) at human PTPN2 (1-387) amounted to 359 nM; at human PTPN1 (1-435), 323 nM.
Take `CS(=N)(=O)c1cc(OCCCC(F)(F)F)c2sc(C(F)(F)P(=O)(O)O)c(Br)c2c1` (centres unmarked) [Compound 413]: the IC50 at human PTPN2 (1-387) came to 7400 nM; at human PTPN1 (1-435), 4080 nM.
For `CS(=N)(=O)c1cc(OCCCC(F)(F)F)c2sc(C(F)(F)P(=O)(O)O)c(Br)c2c1` (centres unmarked) [Compound 414] the same measures were 6700 nM and 3590 nM.
For `NC(=O)c1cc(-c2cc[nH]n2)c2sc(C(F)(F)P(=O)(O)O)c(Br)c2c1` [Compound 415, ((3-bromo-5-carbamoyl-7-(1H-pyrazol-3-yl)benzo[b]thiophen-2-yl)difluoromethyl)phosphonic acid] the same measures were 3840 nM and 3930 nM.
